{"source": "paper PMC5159279", "about": "(Hypertension (Dallas, Tex. : 1979), 2016)", "key": {"[1]": {"test_system": "arterioles from adipose biopsies of patients with hypertension", "experiment": "Human ex vivo vasoreactivity, phenylephrine cumulative dose response", "conditions": "cumulative dose response without HbαX"}, "[2]": {"test_system": "mice with AngII-induced hypertension", "experiment": "Radiotelemetry blood pressure, AngII-induced hypertensive mice", "format": "in vivo", "conditions": "AngII 1000 ng/kg/min by osmotic mini-pump; from a baseline of 110 mmHg"}, "[3]": {"test_system": "hemoglobin in red blood cells", "experiment": "Red blood cell oxygen p50", "conditions": "fresh human blood; 5 minutes incubation; HbαX 30 μmol/L; n=3"}}, "data": [{"molecule": "CNC[C@H](O)c1cccc(O)c1", "note": "[phenylephrine]", "values": [{"measurement": "responsiveness of human arterioles to PE", "setting": "[1]", "result": "responsive"}]}, {"molecule": "Angiotensin II [AngII]", "values": [{"measurement": "systolic blood pressure on AngII", "setting": "[2]", "result": "~ 170 mmHg"}]}, {"molecule": "FPYFSTKLTT [control peptide]", "values": [{"measurement": "oxygen p50 of hemoglobin in RBCs", "setting": "[3]", "result": "did not significantly change the oxygen p50"}]}]}
